In ChEMBL document CHEMBL3885861, “Open TG-GATES”:

Species: Rattus norvegicus
Test: Open TG-GATES - Regimen: Single
Format: toxicity, organism-based, Sprague-Dawley
Design: regimen Single, gender Male, age 6 weeks
Conditions: in vivo, po, 1000 mg/kg, route gavage, dose level Middle; for APTT / Bas / Eos / Fbg / Hb / Ht / Lym / MCH / MCHC / MCV / Mono / Neu / PT / Plat / RBC / Ret / WBC: tissue Blood; for KIDNEY_L / KIDNEY_R / KIDNEY_TOTAL: tissue Kidney; for LIVER: tissue Liver; for A/G / ALP / ALT / AST / BUN / CRE / Ca / Cl / DBIL / GLC / IP / K / LDH / Na / PL / RALB / TBIL / TC / TG / TP / gamma-GTP: tissue Plasma

## CCN1CCCC1CNC(=O)c1cc(S(N)(=O)=O)ccc1OC (configuration not stated) [SULPIRIDE]
3 h
  TERMINAL_BW: 201.4 g
  APTT: 17.3 s
  Bas: 0%
  Eos: 0.6%
  Fbg: 253.4 mg/dL
  Hb: 12.6 g/dL
  Ht: 39.6%
  Lym: 78.4%
  MCH: 20.8 pg
  MCHC: 31.8%
  MCV: 65.2 fL
  Mono: 3.4%
  Neu: 16.8%
  PT: 13.6 s
  Plat: 109.3 x10_4/uL
  RBC: 608 x10_4/ul
  Ret: 8.1%
  WBC: 83.5 x10_2/uL
  KIDNEY_L: 0.9 g
  KIDNEY_R: 0.9 g
  KIDNEY_TOTAL: 1.8 g
  LIVER: 9.2 g
  A/G: 0.9
  ALP: 1375.8 IU/L
  ALT: 36.6 IU/L
  AST: 74.2 IU/L
  BUN: 10.4 mg/dL
  CRE: 0.2 mg/dL
  Ca: 10.8 mg/dL
  Cl: 106.6 meq/L
  DBIL: 0.004 mg/dL
  GLC: 169.8 mg/dL
  IP: 8.2 mg/dL
  K: 4 meq/L
  LDH: 116.6 IU/L
  Na: 142.6 meq/L
  PL: 126.2 mg/dL
  RALB: 2.4 g/dL
  TBIL: 0.068 mg/dL
  TC: 63.4 mg/dL
  TG: 54.2 mg/dL
  TP: 5.1 g/dL
  gamma-GTP: 1.8 IU/L
6 h
  TERMINAL_BW: 201.9 g
  APTT: 18.2 s
  Bas: 0.2%
  Eos: 0.8%
  Fbg: 279.2 mg/dL
  Hb: 13.1 g/dL
  Ht: 40.9%
  Lym: 79.6%
  MCH: 20.9 pg
  MCHC: 32.1%
  MCV: 65.2 fL
  Mono: 3%
  Neu: 15.8%
  PT: 13.5 s
  Plat: 123.7 x10_4/uL
  RBC: 628.2 x10_4/ul
  Ret: 8.4%
  WBC: 61.1 x10_2/uL
  KIDNEY_L: 0.9 g
  KIDNEY_R: 0.9 g
  KIDNEY_TOTAL: 1.7 g
  LIVER: 8.4 g
  A/G: 0.9
  ALP: 1420 IU/L
  ALT: 35.2 IU/L
  AST: 69.8 IU/L
  BUN: 8 mg/dL
  CRE: 0.2 mg/dL
  Ca: 10.7 mg/dL
  Cl: 107.4 meq/L
  DBIL: 0.006 mg/dL
  GLC: 175 mg/dL
  IP: 8.9 mg/dL
  K: 4.1 meq/L
  LDH: 101.8 IU/L
  Na: 142 meq/L
  PL: 137.8 mg/dL
  RALB: 2.4 g/dL
  TBIL: 0.07 mg/dL
  TC: 76.2 mg/dL
  TG: 45.6 mg/dL
  TP: 5.1 g/dL
  gamma-GTP: 1.4 IU/L
9 h
  TERMINAL_BW: 201.7 g
  APTT: 17.2 s
  Bas: 0%
  Eos: 1%
  Fbg: 308 mg/dL
  Hb: 13.7 g/dL
  Ht: 43%
  Lym: 71.2%
  MCH: 20.7 pg
  MCHC: 31.8%
  MCV: 65 fL
  Mono: 3.6%
  Neu: 23.8%
  PT: 13.3 s
  Plat: 131.4 x10_4/uL
  RBC: 661 x10_4/ul
  Ret: 7.7%
  WBC: 64.3 x10_2/uL
  KIDNEY_L: 0.9 g
  KIDNEY_R: 0.9 g
  KIDNEY_TOTAL: 1.8 g
  LIVER: 8.3 g
  A/G: 0.9
  ALP: 1435.8 IU/L
  ALT: 28.6 IU/L
  AST: 63.2 IU/L
  BUN: 7.6 mg/dL
  CRE: 0.2 mg/dL
  Ca: 10.7 mg/dL
  Cl: 107.6 meq/L
  DBIL: 0.002 mg/dL
  GLC: 178.2 mg/dL
  IP: 9.7 mg/dL
  K: 4 meq/L
  LDH: 106.2 IU/L
  Na: 141.6 meq/L
  PL: 151 mg/dL
  RALB: 2.5 g/dL
  TBIL: 0.066 mg/dL
  TC: 83.8 mg/dL
  TG: 65.2 mg/dL
  TP: 5.3 g/dL
  gamma-GTP: 1.2 IU/L
24 h
  TERMINAL_BW: 214.6 g
  APTT: 17.3 s
  Bas: 0%
  Eos: 1%
  Fbg: 290.8 mg/dL
  Hb: 13.9 g/dL
  Ht: 42.1%
  Lym: 77.8%
  MCH: 20.7 pg
  MCHC: 32.9%
  MCV: 62.9 fL
  Mono: 2.4%
  Neu: 18.4%
  PT: 12.8 s
  Plat: 123 x10_4/uL
  RBC: 670.2 x10_4/ul
  Ret: 6.7%
  WBC: 66.8 x10_2/uL
  KIDNEY_L: 0.9 g
  KIDNEY_R: 0.9 g
  KIDNEY_TOTAL: 1.9 g
  LIVER: 9.4 g
  A/G: 0.9
  ALP: 1599.4 IU/L
  ALT: 46 IU/L
  AST: 67.6 IU/L
  BUN: 17.2 mg/dL
  CRE: 0.2 mg/dL
  Ca: 11.2 mg/dL
  Cl: 105.2 meq/L
  DBIL: 0.018 mg/dL
  GLC: 178.8 mg/dL
  IP: 8.6 mg/dL
  K: 4.4 meq/L
  LDH: 145.4 IU/L
  Na: 142 meq/L
  PL: 157.6 mg/dL
  RALB: 2.6 g/dL
  TBIL: 0.056 mg/dL
  TC: 83 mg/dL
  TG: 112.4 mg/dL
  TP: 5.7 g/dL
  gamma-GTP: 1 IU/L
